{
  "source": "patent US11318141B2",
  "about": "“Methods and compositions related to STK1-targeted small molecules as antibiotic resistance breakers” (Ohio State Innovation Foundation, priority 2017, dated 2022)",
  "key": {"S. aureus STK1 / STKK1": {"tested_on": "S. aureus STK1 / STKK1", "test": "Solid-phase ATP affinity chromatography, elution of bound kinase by inhibitor, Western blot", "type": "binding", "description": "(§1) An overnight culture of S. aureus MW2 strain was centrifuged, and the resulting bacterial pellet was resuspended in lysostaphin digestion buffer (50 mM Tris/HCl buffer, pH 7.5, containing 5 μg/ml DNAse/RNAse and protease inhibitor cocktail) in 1/10 the volume of the original culture volume. The latter was then subjected to lysostaphin treatment (15 U/ml). The lysostaphin digest was sonicated (5 sec pulse at every 10 sec for 10 min at 50% of 130 W, […]), and the debris free whole cell lysate was obtained after centrifugation (10.000×g, 10 min, 4° C.). […] The column was then washed with ten column volumes of binding buffer. Subsequently, the bound proteins were eluted with the 10-column volume of buffer containing 50 μM Inh-2 and Inh2-B1. S. aureus crude lysate, the last fraction of the column washing step, and eluted fractions were resolved by SDS-PAGE and electroblotted onto a PVDF membrane. […] A similar experiment was performed using S. pyogenes whole cell lysates obtained from phage lysin-digested S. pyogenes M1T1 strain using the anti-SP-STK antibody as described previously using to determine the specificity of the inhibitor for S. aureus STK1."}, "[1]": {"tested_on": "S. pyogenes SP-STK / SP-STKK", "test": "Solid-phase ATP affinity chromatography, elution of bound kinase by inhibitor, Western blot", "type": "binding", "conditions": "purified recombinant protein", "description": "as §1"}, "S. pyogenes SP-STK": {"tested_on": "S. pyogenes SP-STK", "test": "In vitro autophosphorylation / kinase activity of SP-STK", "type": "biochemical"}, "BEAS-2B cells": {"tested_on": "BEAS-2B cells", "test": "MTT cell proliferation assay", "type": "cell-based, human", "conditions": "24 h", "description": "(§2) Impact of Inh2-B1 on cell proliferation was determined by MTT (3-[4,5-dimethylthiazol-2-yl]-2,5 diphenyl tetrazolium bromide)-based assay using Roche Colorimetric proliferation assay kit. Cell lines mentioned above were grown in 96-well tissue culture plates in the CO2 incubator at 37° C. The cells were treated with Inh2-B1 as described above in a final volume of 100 μl for 24 h. At the end of incubation, tissue culture medium from each well was removed and replaced with fresh 100 μl of the medium containing MTT solution (0.5 mg/ml) and further incubated for 4 h. The purple color of formazan salt crystals formed in each well was solubilized with the addition of 100 μl of 10% SDS solution in 0.01M HCl and further incubating for 10-12 h. The solubilized formazan product in each well was spectrophotometrically analyzed using a microtiter plate reader (Molecular Devices, 570 nm). Absorbance values of wells containing MTT reagents without cells and the untreated cultured cells with MTT reagents were considered as the background and negative controls. All tests were performed in triplicate wells. The average background value obtained from 10 wells was subtracted from the test values, and the corrected values obtained from untreated and treated cells were statistically analyzed by Student's test. P<0.05 was treated as a significant difference."}, "Detroit 562 cells": {"tested_on": "Detroit 562 cells", "test": "MTT cell proliferation assay", "type": "cell-based, human", "conditions": "even at 100 μM, 24 h", "description": "as §2"}, "[2]": {"test": "Tolerability in mice treated with compound only", "type": "in vivo, CD-1 mice", "conditions": "5 mg/kg i.p., ten-day observation", "description": "The virulence potential of the wild-type S. aureus MW2 wild-type and corresponding MW2ΔSTK1 and MW2ΔSTP1 mutants was assessed using the mouse-septicemia model. CD-1 mice (5 weeks old, 20-22 g. Charles River Laboratories, ten female mice/group and housed in a group of 5 mice/cage) were lightly anesthetized with isoflurane and injected retro-orbitally with the S. aureus MW2 or isogenic MW2Δstk1 mutant (4×10^8 CFU/0.1 ml of PBS). […] For therapeutic studies, the animals were first challenged with MW2-WT strain as described above and subsequently administered with antibiotic and/or small molecule compounds. The latter was started 4 h after the challenge and subsequently 12 h apart for 4 days post infection. Thus, Inh2-B1 (5 mg/kg body weight in 0.3 ml vehicle buffer), Ceftriaxone (10 and 25 mg/kg body weight in 0.3 ml vehicle buffer). […] Data were combined, and percentage survival in each group was statistically evaluated by the Log-Rank test (Kaplan-Meier) using the GraphPad Prism 6 software. […] On Day 3 P.I., 3-6 mice from different groups receiving treatment with a single antibiotic or combination therapy were euthanized and sacrificed, and kidneys were […] for determining the bacterial load, which was determined by counting the colony forming units in the homogenized tissue in sterile PBS buffer."}, "[3]": {"tested_on": "S. aureus MW2-WT, MW2ΔSTK1 and MW2ΔSTP1 colonies", "test": "Colony hemolysis pattern on TSA blood agar plates", "type": "cell-based, Staphylococcus aureus", "conditions": "50 μM Inh2-B1, MW2-WT, MW2ΔSTK1 or MW2ΔSTP1", "excerpt": "See the increased hemolysis around the colonies of the MW2ΔSTK1 mutant and absence of hemolysis around those of MW2ΔSTP1 mutant as depicted in the enlarged portion of certain representative colonies shown under each panel of the strain. A one centimeter bar is included to facilitate the determination of the relative size of colonies and corresponding hemolytic zones around them."}, "S. aureus MW2-WT": {"tested_on": "S. aureus MW2-WT", "test": "microbe, parasite or virus in culture", "type": "cell-based, Staphylococcus aureus", "conditions": "E-test, 50 μM Inh2-B1, 6 antibiotics"}, "[4]": {"tested_on": "S. aureus MW2ΔSTK1 biofilms", "test": "Biofilm formation, crystal violet stain method", "type": "cell-based, Staphylococcus aureus", "conditions": "25 μM, further 48 h"}},
  "data": [
    {"smiles": "COC(=O)c1ccc2c(=O)[nH]c3c(C(=O)Nc4ccccc4)sc(=S)n3c2c1", "note": "[Inh2-B1, Methyl 5-oxo-3-(phenylcarbamoyl)-1-thioxo-4,5dihydro[1,3]thiazolo[3,4-a]quinazoline-8-carboxylate]", "values": [
      {"measurement": "elution of STK1 bound to ATP-column, whole cell lysate of S. aureus MW2", "setting": "S. aureus STK1 / STKK1; eluted with 50 μM inhibitor, anti-STK1 immunoblot", "value": "presence of STK1"},
      {"measurement": "elution of purified recombinant S. aureus STKK1 from ATP-column", "setting": "S. aureus STK1 / STKK1; purified recombinant protein", "value": "could elute only the S. aureus STKK1 protein"},
      {"measurement": "elution of purified recombinant S. pyogenes SP-STKK from ATP-column", "setting": "[1]", "value": "not S. pyogenes SP-STKK protein"},
      {"measurement": "inhibition of the kinase activity of SP-STK of S. pyogenes", "setting": "S. pyogenes SP-STK", "value": "did not inhibit the kinase activity"},
      {"measurement": "cell proliferation inhibition (MTT)", "setting": "BEAS-2B cells; 50 μM", "value": "~20", "unit": "%"},
      {"measurement": "cell proliferation inhibition (MTT)", "setting": "BEAS-2B cells; 100 μM", "value": "~40", "unit": "%"},
      {"measurement": "effect on cell proliferation (MTT)", "setting": "Detroit 562 cells", "value": "did not affect cell proliferation"},
      {"measurement": "signs of illness in mice treated with only the compound", "setting": "[2]", "value": "no morbid signs of illness"},
      {"measurement": "survival of mice treated with only the compound", "setting": "[2]", "value": "survived all throughout the observation period"},
      {"measurement": "hemolysis pattern of colonies", "setting": "[3]", "value": "did not show any changes in the hemolysis pattern"},
      {"measurement": "effect on susceptibility patterns of antibiotics other than cell wall acting ones", "setting": "S. aureus MW2-WT", "value": "did not change susceptibility patterns"},
      {"measurement": "effect on preformed biofilms", "setting": "[4]", "value": "did not affect biofilms of MW2ΔSTK1"}
    ]}
  ]
}
